# Experimental data as given in patent US20260192003A1, “CHELATING COMPOUNDS AND METHODS OF USES THEREOF” (THE REGENTS OF THE UNIVERSITY OF CALIFORNIA, priority 2023, published 2026).
# Where two headings read alike, the source gives them in different places. Marks after values point to notes of the source that are not given here.
# What was measured:
# [1] = Potentiometric titration, protonation constants (pKa); format: physicochemical; settings: for ΣpKa: sum of the pKa values tentatively assigned to protonation of the HOPO units
# Description: The protonation constants (pKa) of the synthesized ligands were determined potentiometrically in 0.1 M KCl. […] Based on previous studies involving ligands bearing the tetraazacyclododecane backbone,^80-82 the remaining two pKa values likely correspond to protonation of two of the amine groups present in the macrocycle (Table 1). The 1,2-HOPO donors of MeDOTHOPO are approximately 1 pKa unit more basic than those of 3,4,3-LI-(1,2-HOPO) or DOTHOPO.
# [2] = Spectrophotometric titration, cumulative formation constants and pM with Fe^3+; format: physicochemical; settings: 25° C., I = 0.1M KCl; for pM, Fe^3+: pM = -log[M]free, [M]tot = 10^−6M, [L]tot = 10^−5M, pH 7.4
# Description: The affinity of these ligands for Fe3+ was explored as a representative endogenous metal that could compete with Th^4+ in vivo. The stability constants of DOTHOPO and MeDOTHOPO with Fe^3+ were determined by incremental spectrophotometric titrations, similar to those described for Zr^4+ and Th^4+ in the Supporting Information.
# (§1) The log βmlh values reported above are pH-independent absolute stability constants. Because these ligands have differing pKa values, competition between H^+ and the metal of interest under different pH conditions will give rise to different pH-dependent conditional stability constants that are not accurately described by log βML values. To mitigate this issue and allow for direct comparison between ligands, we calculated the pM values (pM=−log[Mfree], where Mfree=solvated metal ions free of complexation by ligand or hydroxide when [L]=10^−5 M and [M]=10^−6 M)^85 for each ligand with the Fe^3+, Zr^4+, and Th^4+ (Table 3).
# [3] = UV-vis spectrophotometric titration, cumulative formation constants and pM with Zr^4+; format: physicochemical; settings: 25° C., I = 0.1M KCl; for pM, Zr^4+: pM = -log[M]free, [M]tot = 10^−6M, [L]tot = 10^−5M, pH 7.4, MeDOTHOPO predicted from Table 2 log β
# Text: (§2) We next sought to evaluate the thermodynamic stabilities of the Zr^4+ and Th^4+ complexes of DOTHOPO and MeDOTHOPO by measuring their cumulative formation constants (log βmlh, see Supplementary Information for details). […] Above pH 10, the complexes dissociate to yield the free ligand and metal-hydroxide species, which could be leveraged to determine the stability constants of the Zr^4+ and Th^4+ complexes via UV-vis spectrophotometric titrations (FIGS. 2 and 3). […] The pH dependent species distribution diagrams for DOTHOPO with Zr^4+ and Th^4+ are provided in the Supporting Information. Importantly, the metal remains completely bound by the chelator below pH 10 and the major species present at pH 7.4 is the 1:1 ML complex for both metals. […] As such, the log βmlh values of MeDOTHOPO with Zr^4+ and Th^4+ were predicted to be ≥51 and ≥53, respectively, using Hyss (Table 2).
# as §1
# [4] = UV-vis spectrophotometric titration, cumulative formation constants and pM with Th^4+; format: physicochemical; settings: 25° C., I = 0.1M KCl; for pM, Th^4+: pM = -log[M]free, [M]tot = 10^−6M, [L]tot = 10^−5M, pH 7.4, MeDOTHOPO predicted from Table 2 log β
# Text: as §2, §1
# [5] = Arsenazo III dye displacement, indirect kinetics of Th^4+ complexation; format: physicochemical; settings: for k2: 5 μM Th^4+, 25 μM Arsenazo III, 75 μM ligand (15 equiv.), 100 mM HEPES (pH 7.4), 25° C.
# Description: Another important aspect of chelators for radiopharmaceutical applications is the kinetics of complexation with the radiometal of interest. A ligand must be able to bind the radioactive metal ion rapidly and completely to minimize the extent of radioactive decay before administration in vivo. […] To access the suitability of DOTHOPO and MeDOTHOPO in this context, we sought to determine the kinetics of Th^4+ complexation of these chelators in aqueous solution at 25° C. […] Following literature precedent,^35 the relative rate of metal complexation by these ligands could be studied indirectly using the dye Arsenazo III, which forms highly colored complexes with Th^4+ with a prominent absorbance band at 669 nm.^92 The addition of excess chelator to solutions of Th^4+ and Arsenazo III caused the dye to be displaced and the formation of the metal-chelator complex could be monitored by the disappearance of the absorbance features corresponding to the metal-dye compound (FIG. 4).
# The aim of these experiments was to determine a second-order rate constant for the complexation reaction of Th^4+ by DOTHOPO and MeDOTHOPO. […] For comparison purposes, the second-order rate constant of complexation was calculated using the reaction of 15 equiv. of ligand relative to metal (Table 4, see SI for details). The [ThL] (L=DOTHOPO, MeDOTHOPO) complexes form rapidly in aqueous solution. The second-order halflives, calculated for 10 μM each of metal and ligand, are 30 and 18 min for DOTHOPO and MeDOTHOPO respectively. The faster complexation kinetics of MeDOTHOPO compared to DOTHOPO can likely be attributed to the increased flexibility of the ligand.
# [6] = cited from earlier work
# [7] = 25° C., I = 0.1M KCl; reference 48; cited from earlier work
# [8] = 25° C., I = 0.1M KCl; reference 48; cited from earlier work; remark: listed apart in the source
# [9] = cited from earlier work; remark: listed apart in the source
# [10] = previous work, similar conditions, room temperature, after 2 months; cited from earlier work
# [11] = 25° C., I = 0.1M KCl, data taken from Ref. 48
# [12] = 25° C., I = 0.1M KCl, reference 48
SMILES,"pKa1 ([1]; 25° C., I = 0.1M KCl, n = 5)","pKa2 ([1]; 25° C., I = 0.1M KCl, n = 5)","pKa3 ([1]; 25° C., I = 0.1M KCl, n = 5)","pKa4 ([1]; 25° C., I = 0.1M KCl, n = 5)",ΣpKa [1],"log βmih, Fe^3+, [FeLH] [2]","log βmih, Fe^3+, [FeL]^− [2]","pM, Fe^3+ [2]","pM, Zr^4+ [3]","pM, Th^4+ [4]",k2 [5] [M⁻¹ s⁻¹],further results
"O=c1cccc(CN2CCN(Cc3cccc(=O)n3O)CCN(Cc3cccc(=O)n3O)CCN(Cc3cccc(=O)n3O)CC2)n1O [MeDOTHOPO, 1,4,7,10-tetraazacyclododecane-1,4,7,10-tetra(methylene)tetrakis(1-hydroxy-2-pyridinone)]",10.52(6),9.1(2),7.79(8),6.63(3),24.96,39.5(4),30.3(2),27.6,>46^b,>48^b,89.2 ± 8.5,"pKa5 ([1]; 25° C., I = 0.1M KCl, n = 5): 6.06(3); pKa6 ([1]; 25° C., I = 0.1M KCl, n = 5): 4.41(6)"
Cn1ccc(C(=O)NCCN(CCNC(=O)c2ccn(C)c(=O)c2O)CCC(Cc2ccc(NC(=O)CCC(=O)O)cc2)N(CCNC(=O)c2ccn(C)c(=O)c2O)CCNC(=O)c2ccn(C)c(=O)c2O)c(O)c1=O (centres unmarked) [L1],,,,,,,,25.1,42.9,39.9,,"pKa1 [6, 11]: 2.93(35); pKa2 [6, 11]: 4.39(8)^c; pKa3 [6, 11]: 4.73(34); pKa4 [6, 11]: 5.97(14); pKa5 [6, 11]: 6.90(5); pKa6 [6, 11]: 7.74(6); pKa7 [6, 11]: 9.58(16); ΣpKa ([6]; sum of the pKa values assigned to the HOPO units, Ref. 48): 21.99; log βmih, Fe^3+, [FeLH] [7]: 31.2(4); log βmih, Fe^3+, [FeL]^− [7]: 26.9(3); log βmih, Zr^4+, [ZrLH]^+ [8]: 50.6(2); log βmih, Zr^4+, [ZrL] [8]: 44.7(1); log βmih, Th^4+, [ThH−1L]^2− [9, 12]: 32.4(4); log βmih, Th^4+, [ThLH] [9, 12]: 45.9(4); log βmih, Th^4+, [ThL]^− [9, 12]: 41.7(3); log βThL ([9]; background, literature value): 41.72"
O=C(c1cccc(=O)n1O)N1CCN(C(=O)c2cccc(=O)n2O)CCN(C(=O)c2cccc(=O)n2O)CCN(C(=O)c2cccc(=O)n2O)CC1 [DOTHOPO],6.43(9),5.46(1),5.05(3),4.28(6),21.34,33.3(6),27.8(4),28.7,43.7,35.3,54.2 ± 2.8,"log βmih, Zr^4+, [ZrLH]^+ [3]: 47.0(6); log βmih, Zr^4+, [ZrL] [3]: 42.9(4); log βmih, Th^4+, [ThLH]^+ [4]: 38.5(1); log βmih, Th^4+, [ThL] [4]: 34.4(1)"
"O=C(O)CN(CCN(CC(=O)O)CC(=O)O)CCN(CC(=O)O)CC(=O)O [DTPA, reference compound]",,,,,,,,,,,7.9 ± 0.9,
"O=C(O)CN1CCN(CC(=O)O)CCN(CC(=O)O)CCN(CC(=O)O)CC1 [DOTA, 1,4,7,10-tetraazacyclododecane-N,N′,N″,N″-1,4,7,10-tetraacetic acid, reference compound]",,,,,,,,,,,,complexation of Th^4+ (Arsenazo III displacement) ([5]; over 24 h at 25° C.): did not show any complexation; displacement of Arsenazo III from Th^4+ [10]: does not displace Arsenazo III
